Measured values as given in DBAASP.
Converted amounts (≈) assume the structure as drawn. Each block holds one compound with its values, some of them ahead of it.

Legend:
Assay in all cases: ≥ marks a high value that may be exact or a test limit, other limits are often not marked, values filed in µg/mL are converted to µM
[1] = test system: Pseudomonas aeruginosa PAK
[2] = test system: Staphylococcus aureus
[3] = test system: Streptococcus gordonii Challis DL1
[4] = test system: Streptococcus mutans UA159
[5] = test system: Streptococcus mitis ATCC 903
[6] = test system: Streptococcus sanguinis NY101
[7] = test system: Enterobacter cloacae BCRC 10401
[8] = test system: Yersinia enterocolitica BCRC 13999
[9] = test system: Staphylococcus xylosus BCRC 12930
[10] = test system: Vibrio alginolyticus BCRC 12829
[11] = test system: Listeria monocytogenes BCRC 14845
[12] = test system: Klebsiella oxytoca BCRC 13985
[13] = test system: Streptococcus iniae
[14] = test system: Klebsiella aerogenes BCRC 10370
[15] = test system: Vibrio anguillarum serotype O1
[16] = test system: Streptococcus equinus BCRC 14729
[17] = test system: Vibrio harveyi
[18] = test system: Lactococcus garvieae
[19] = test system: Vibrio parahaemolyticus BCRC 10806
[20] = test system: Vibrio parahaemolyticus
[21] = test system: Escherichia coli BCRC 10675
[22] = test system: Vibrio alginolyticus
[23] = test system: Pseudomonas aeruginosa BCRC 10944
[24] = test system: Staphylococcus aureus BCRC 10781
[25] = test system: Staphylococcus aureus BCRC 10780
[26] = test system: Micrococcus luteus ATCC 4698
[27] = test system: Staphylococcus aureus ATCC 6538
[28] = test system: Escherichia coli DH5alpha
[29] = test system: Staphylococcus epidermidis ATCC 12228
[30] = test system: Streptococcus mutans ATCC 25175
[31] = test system: Pseudomonas putida ATCC 17426
[32] = test system: Staphylococcus aureus ATCC 15752
[33] = test system: Cryptococcus neoformans ATCC 34881
[34] = test system: Saccharomyces cerevisiae ATCC 44774
[35] = test system: Bacillus subtilis ATCC 62037
[36] = test system: Serratia sp. ATCC 21074
[37] = test system: Candida albicans ATCC 10231
[38] = test system: Escherichia coli ATCC 27325

Compound: CC[C@H](C)[C@@H]1NC(=O)[C@H](CO)NC(=O)[C@H](CCCCN)NC(=O)[C@@H](N)CSSC[C@@H](C(=O)NCC(=O)O)NC(=O)[C@H](CCCN=C(N)N)NC(=O)CNC(=O)[C@@H]2CCCN2C1=O [CKSIPGRCG]
MIC [26]: ≥ 75 µM

Compound: CC(C)C[C@H](NC(=O)[C@H](CC(C)C)NC(=O)[C@H](CCCCN)NC(=O)[C@H](CCCCN)NC(=O)[C@H](CC(C)C)NC(=O)[C@H](C)NC(=O)[C@H](CCCCN)NC(=O)[C@H](Cc1ccccc1)NC(=O)[C@H](CC(C)C)NC(=O)[C@H](C)NC(=O)[C@H](CCCCN)NC(=O)[C@H](CC(C)C)NC(=O)[C@@H](N)Cc1ccccc1)C(=O)O [FLKALFKALKKLL]
MIC [27]: 5.87 µM (≈ 9 µg/mL)
MIC [26]: 1.96 µM (≈ 3 µg/mL)
MIC [28]: 7.83 µM (≈ 12 µg/mL)
MIC [29]: 6.52 µM (≈ 10 µg/mL)

Compound: CC[C@H](C)[C@H](NC(=O)[C@H](Cc1ccccc1)NC(=O)[C@H](Cc1cnc[nH]1)NC(=O)[C@H](CCCCN)NC(=O)[C@@H](NC(=O)[C@@H](N)Cc1ccccc1)[C@@H](C)CC)C(=O)N[C@@H](Cc1cnc[nH]1)C(=O)N[C@@H](CCCN=C(N)N)C(=O)N[C@@H](Cc1ccccc1)C(=O)N[C@@H](CO)C(=O)N[C@@H](C)C(=O)N[C@H](C(=O)N[C@@H](CC(C)C)C(=O)N[C@@H](CCC(N)=O)C(=O)N[C@@H](CC(C)C)C(=O)N[C@@H](CC(C)C)C(=O)N[C@@H](CCCCN)C(=O)N[C@@H](CCC(N)=O)C(=O)N[C@@H](CC(C)C)C(=O)N[C@@H](CC(C)C)C(=O)N[C@@H](CCCCN)C(=O)N[C@@H](CC(C)C)C(=O)N[C@@H](CC(C)C)C(=O)N[C@@H](CCCCN)C(=O)N[C@@H](CCC(N)=O)C(=O)N[C@@H](Cc1ccccc1)C(N)=O)[C@@H](C)O [FIKHFIHRFSATLQLLKQLLKLLKQF]
MIC [1]: 9.96 µM (≈ 32 µg/mL)
MIC [2]: 19.5 µM (≈ 62.5 µg/mL)
MIC [3]: 2.49 µM (≈ 8 µg/mL)
MIC [4]: 4.98 µM (≈ 16 µg/mL)
MIC [5]: 9.96 µM (≈ 32 µg/mL)
MIC [6]: 4.98 µM (≈ 16 µg/mL)

Compound: CC[C@H](C)[C@H](NC(=O)[C@H](Cc1ccc(O)cc1)NC(=O)[C@H](CC(N)=O)NC(=O)[C@H](Cc1ccccc1)NC(=O)[C@@H](NC(=O)[C@H](CCCCN)NC(=O)[C@H](CCCCN)NC(=O)[C@@H](NC(=O)[C@H](CC(C)C)NC(=O)[C@H](CC(N)=O)NC(=O)[C@H](C)NC(=O)[C@H](Cc1ccccc1)NC(=O)[C@H](CCCCN)NC(=O)[C@H](CCCCN)NC(=O)[C@H](C)NC(=O)[C@H](C)NC(=O)[C@H](CC(N)=O)NC(=O)[C@H](C)NC(=O)CN)[C@@H](C)CC)[C@@H](C)CC)C(=O)N[C@@H](Cc1c[nH]c2ccccc12)C(=O)O [GANAAKKFANLIKKIFNYIW]
MIC [7]: 6.92 µM (≈ 16 µg/mL)
MIC [8]: ≥ 55.4 µM
MIC [9]: 6.92 µM (≈ 16 µg/mL)
MIC [10]: 13.8 µM (≈ 32 µg/mL)
MIC [11]: 13.8 µM (≈ 32 µg/mL)
MIC [12]: 13.8 µM (≈ 32 µg/mL)
MIC [13]: ≥ 55.4 µM
MIC [14]: 6.92 µM (≈ 16 µg/mL)
MIC [15]: 6.92 µM (≈ 16 µg/mL)
MIC [16]: ≥ 55.4 µM
MIC [17]: 3.46 µM (≈ 8 µg/mL)
MIC [18]: ≥ 55.4 µM
MIC [19]: 13.8 µM (≈ 32 µg/mL)
MIC [20]: 6.92 µM (≈ 16 µg/mL)
MIC [21]: 6.92 µM (≈ 16 µg/mL)
MIC [22]: 6.92 µM (≈ 16 µg/mL)
MIC [23]: 13.8 µM (≈ 32 µg/mL)
MIC [24]: 6.92 µM (≈ 16 µg/mL)
MIC [25]: 3.46 µM (≈ 8 µg/mL)

Now from value to compound, other results behind:

MIC [1]: 9.96 µM (≈ 32 µg/mL)
MIC [2]: 9.96 µM (≈ 32 µg/mL)
MIC [3]: 4.98 µM (≈ 16 µg/mL)
MIC [4]: 2.49 µM (≈ 8 µg/mL)
MIC [5]: 9.96 µM (≈ 32 µg/mL)
MIC [6]: 4.98 µM (≈ 16 µg/mL)
Compound: CC[C@H](C)[C@H](NC(=O)[C@H](Cc1ccccc1)NC(=O)[C@H](Cc1cnc[nH]1)NC(=O)[C@H](CCCCN)NC(=O)[C@@H](NC(=O)[C@H](Cc1ccccc1)NC(=O)[C@@H](NC(=O)[C@H](C)NC(=O)[C@H](CO)NC(=O)[C@H](Cc1ccccc1)NC(=O)[C@H](CCC(N)=O)NC(=O)[C@H](CCCCN)NC(=O)[C@H](CC(C)C)NC(=O)[C@H](CC(C)C)NC(=O)[C@H](CCCCN)NC(=O)[C@H](CC(C)C)NC(=O)[C@H](CC(C)C)NC(=O)[C@H](CCC(N)=O)NC(=O)[C@H](CCCCN)NC(=O)[C@H](CC(C)C)NC(=O)[C@H](CC(C)C)NC(=O)[C@H](CCC(N)=O)NC(=O)[C@@H](N)CC(C)C)[C@@H](C)O)[C@@H](C)CC)C(=O)N[C@@H](Cc1cnc[nH]1)C(=O)N[C@@H](CCCN=C(N)N)C(=O)N[C@@H](Cc1ccccc1)C(N)=O [LQLLKQLLKLLKQFSATFIKHFIHRF]

MIC [7]: 3.54 µM (≈ 8 µg/mL)
MIC [8]: 14.2 µM (≈ 32 µg/mL)
MIC [9]: 1.77 µM (≈ 4 µg/mL)
MIC [10]: ≥ 56.7 µM
MIC [11]: 14.2 µM (≈ 32 µg/mL)
MIC [12]: 14.2 µM (≈ 32 µg/mL)
MIC [13]: ≥ 56.7 µM
MIC [14]: 7.09 µM (≈ 16 µg/mL)
MIC [15]: 14.2 µM (≈ 32 µg/mL)
MIC [16]: ≥ 56.7 µM
MIC [17]: 14.2 µM (≈ 32 µg/mL)
MIC [18]: ≥ 56.7 µM
MIC [21]: 7.09 µM (≈ 16 µg/mL)
MIC [22]: 1.77 µM (≈ 4 µg/mL)
MIC [23]: 7.09 µM (≈ 16 µg/mL)
MIC [24]: 14.2 µM (≈ 32 µg/mL)
MIC [25]: 14.2 µM (≈ 32 µg/mL)
Compound: CC[C@H](C)[C@H](NC(=O)CN)C(=O)N[C@@H](CCCCN)C(=O)N[C@H](C(=O)N[C@@H](C)C(=O)N[C@@H](CCCCN)C(=O)N[C@@H](CCCCN)C(=O)N[C@@H](C)C(=O)N[C@H](C(=O)N[C@H](C(=O)N[C@H](C(=O)N[C@@H](C)C(=O)N[C@@H](CCCCN)C(=O)N[C@@H](CCCCN)C(=O)N[C@H](C(=O)N[C@@H](C)C(=O)N[C@@H](CCCCN)C(=O)N[C@H](C(=O)N[C@@H](Cc1ccc(O)cc1)C(=O)N[C@@H](Cc1c[nH]c2ccccc12)C(=O)O)[C@@H](C)CC)[C@@H](C)CC)[C@@H](C)CC)[C@@H](C)O)[C@@H](C)CC)[C@@H](C)CC [GIKIAKKAITIAKKIAKIYW]
MIC [19]: ≥ 56.7 µM
MIC [20]: 7.09 µM (≈ 16 µg/mL)

MIC [30]: 5.57 µM (≈ 20 µg/mL)
MIC [31]: 3.34 µM (≈ 12 µg/mL)
MIC [32]: 3.34 µM (≈ 12 µg/mL)
MIC [33]: 4.46 µM (≈ 16 µg/mL)
MIC [34]: 2.23 µM (≈ 8 µg/mL)
MIC [35]: 2.23 µM (≈ 8 µg/mL)
MIC [36]: 3.34 µM (≈ 12 µg/mL)
MIC [37]: 3.34 µM (≈ 12 µg/mL)
MIC [38]: 2.23 µM (≈ 8 µg/mL)
Compound: CC[C@H](C)[C@H](NC(=O)[C@H](CCCN=C(N)N)NC(=O)[C@H](CCC(=O)O)NC(=O)[C@@H]1CCCN1C(=O)[C@@H]1CCCN1C(=O)[C@H](Cc1ccc(O)cc1)NC(=O)[C@H](CC(C)C)NC(=O)[C@H](Cc1ccccc1)NC(=O)[C@H](CCC(N)=O)NC(=O)[C@@H]1CCCN1C(=O)CNC(=O)[C@@H](NC(=O)[C@H](Cc1ccc(O)cc1)NC(=O)[C@H](CCC(N)=O)NC(=O)[C@H](CC(N)=O)NC(=O)[C@H](CCCCN)NC(=O)[C@H](CCCN=C(N)N)NC(=O)[C@H](CCC(=O)O)NC(=O)[C@H](CO)NC(=O)[C@H](Cc1ccc(O)cc1)NC(=O)[C@@H]1CCCN1C(=O)[C@H](CCCN=C(N)N)NC(=O)[C@H](CCCCN)NC(=O)[C@H](CC(=O)O)NC(=O)[C@H](CCCCN)NC(=O)[C@H](CCC(N)=O)NC(=O)[C@@H](N)CCCN=C(N)N)[C@@H](C)O)C(=O)N1CCC[C@H]1C(=O)N1CCC[C@H]1C(=O)O [RQKDKRPYSERKNQYTGPQFLYPPERIPP]
